Source: patent publication US20120164230A1, “Soluble Nanoparticles as Delivery Systems for Prodrugs” (priority 2007, published 2012)

Columns and labels:
NTera-2 cells [1] = assay: Platinum concentration of cell extracts (cytosolic and nuclear fractions) by AAS; assay type: cell-based, human; conditions: 1 μM platinum, 3 h incubation
Protocol: In order to investigate the mechanism by which the SWNTs transport Pt(IV) compounds into cells and release them once inside we devised a strategy to track their intracellular location.
Cell Extract Preparation and Analysis. NTera-2 cells were grown to >90% confluence in 175 cm^2 flasks. These cells were treated separately with 1 μM concentrations of cisplatin, c,c,t-[Pt(NH3)2Cl2(OEt)(O2CCH2CH2CO2H)], and SWNT-Pt(IV) and subsequently incubated for three h at 37° C. The cells were washed thrice with PBS and released by trypsinization into PBS. The cell solutions were centrifuged at 800×g for 10 min and the cell pellets resuspended in 100 μL of ice-cold lysis buffer (1.0 mM DTT (dithiothreitol), 1.0 mM PMSF (phenylmethanesulphonylfluoride), 10 mM KCl, 10 mM MgCl2, pH 7.5) for 15 min. The cells were centrifuged again and the pellets resuspended in 40 μL of ice-cold lysis buffer. The cell membranes were lysed by 10 strokes of a 28 ga. syringe. The resulting suspension was centrifuged at 11,000×g for 20 min and the supernatant was collected as the cytosolic fraction of the cells. […] The lysate was shaken at 1000 rpm for 45 min at […] and then centrifuged at 20,000×g for 10 min at 4° C. The supernatant was collected as the nuclear fraction. The platinum concentration of all fractions was determined by AAS. The protein concentration for each fraction was determined by the bicinchoninic acid (BCA) assay and the total platinum concentration was expressed as nanograms of platinum per microgram of protein (Table 1).

NTera-2 cells [2] = assay: MTT cell proliferation / cytotoxicity assay; assay type: cell-based, human
Protocol: In order to evaluate the feasibility of this method for delivering a toxic dose of platinum, cytotoxicity assays of SWNT-Pt(IV) were conducted using the testicular carcinoma cell line NTera-2. Example 3 below describes these experiments, in which the MTT assay was used to determine cell viability following treatment for four days with either the free platinum(IV) complex 2 or with the SWNT-tethered analog (FIG. 2). Compared to cis-[Pt(NH3)2Cl2] (IC50=0.05 μM) the cytotoxicity of the asymmetrically substituted platinum(IV) compound 2 is insignificant (IC50>>0.5 mM). […] Without wishing to be bound to any particular theory, it is thought that this increase is due to the two-fold increase in uptake of Pt relative to free cisplatin.
Cell Culture. Cells from the human testicular cancer line NTera-2 were incubated at 37° C. in 5% CO2 and grown in DMEM (Dulbecco's Modified Eagle's Medium) medium supplemented with 10% fetal bovine serum and 1% penicillin/streptomycin. Cells were passaged every 3 to 4 days and reseeded from frozen stocks after reaching passage number 20.
Cell Proliferation Assay. Ntera-2cells were seeded into 96 well plates at a confluence of 1000 cells per well and incubated for 24 h. The cells were then treated with either cisplatin, compound 1, compound 2, or SWNT-Pt(IV) and incubated for 96 h. The cells were then treated with 20 μL of 3-(4,5-dimethylthiazol-2-yl)-2,5-diphenyltetrazolium bromide (MTT) (5 mg/mL in PBS) and incubated for 5 h. The medium was removed, the cells were lysed with 100 μL of DMSO, and the absorbance of the purple formazan was recorded at 550 nm. The results are presented in FIG. 2, FIG. 7, FIG. 8, and FIG. 9. […] (cisplatin).

[3] = Cyclic voltammetry, reduction potential; assay type: physicochemical; conditions: vs Ag/AgCl; for reduction potential (reduction peak) extrapolated to 0.0 mV s^-1 scan rate: pH 6.0, 0.1 M KCl phosphate buffer; for reduction potential extrapolated to 0.0 mV s^-1 scan rate: pH 7.4, 0.1 M KCl phosphate buffer
Protocol: Each platinum complex was dissolved to a final concentration of 2.0 mM in 0.1 M aqueous KCl buffered with phosphate to either pH 6.0 or 7.4. Cyclic voltammetric (CV) measurements were performed with a model 263 EG&G Princeton Applied Research electrochemical analyzer at varying scan rates of 20-100 mV s^−1. The solvent was degassed by several freeze-pump-thaw cycles and measurements were taken under an atmosphere of argon. The working electrode was made of glassy carbon, the reference electrode was Ag/AgCl, and the counter electrode was a platinum wire. Reported potentials are extrapolated to 0.0 mV s^−1 scan rates to account for the irreversible behavior of the reduction processes.^7

| Platinum concentration of cell extracts, Cytosolic (NTera-2 cells [1]) | Platinum concentration of cell extracts, Nuclear (NTera-2 cells [1]) | reduction potential (reduction peak) extrapolated to 0.0 mV s^-1 scan rate [3] [V] | reduction potential extrapolated to 0.0 mV s^-1 scan rate [3] [V] | Molecule | IC50 (NTera-2 cells [2]) [nM] | cytotoxicity (in words) (NTera-2 cells [2]) |
| --- | --- | --- | --- | --- | --- | --- |
| 3 Pt(ng)/protein(mg) | 6 Pt(ng)/protein(mg) | −0.623 | −0.724 | CC[O][Pt]([NH2])([NH2])([Cl])([Cl])[O]C(=O)CCC(=O)O [Compound 2, c,c,t-[Pt(NH3)2Cl2(OEt)(O2CCH2CH2CO2H)]] | > 500 | nearly nontoxic |
| 11 Pt(ng)/protein(mg) | 14 Pt(ng)/protein(mg) | – | – | cis-[Pt(NH3)2Cl2] [reference compound] | 50 | significantly more toxic |
| – | – | −0.499 | −0.604 | CC[O][Pt]([NH2])([NH2])([OH])([Cl])[Cl] [Compound 1, c,c,t-[Pt(NH3)2Cl2(OH)(OEt)]] | – | only toxic to cells in micromolar concentrations |
